The values below are quoted from earlier work in US11549142B2, “CETP inhibitors for therapeutic use” (Hoffmann-La Roche Inc., priority 2013, dated 2023).

The test system of the series is patients. The settings on record: torcetrapib and atorvastatin concomitantly compared to atorvastatin alone; cited from earlier work.

With `CCOC(=O)N1c2ccc(C(F)(F)F)cc2[C@@H](N(Cc2cc(C(F)(F)F)cc(C(F)(F)F)c2)C(=O)OC)C[C@H]1CC` [torcetrapib, (2R,4S)-4-[(3,5-bistrifluoromethylbenzyl)methoxycarbonylamino]-2-ethyl-6-trifluoromethyl-3,4-dihydro-2H-quinoline-1-carboxylic acid ethyl ester], the “reason for termination of the Phase III clinical trial” value is “incidence of mortality”.
